Results as given in patent US6242429A, “Arabinosyladenine derivatives” (priority 1998, dated 2001).
“Also recorded” adds a separate entry of the source.

Columns and labels:
[1] = tested on: adenosinedeaminase (ADA); experiment: Stability to ADA, enzymatic reaction followed by decrease in UV absorption at 265 nm; assay type: in vitro ADME; conditions: 0.1 mM compound, 75 mM phosphate buffer pH 7.5, 25° C., UV 265 nm
Description: An enzymatic reaction was carried out to test stability of the compounds to ADA. Thus, 200 μL (final concentration: 0.1 mM) of a 1 mM solution of a compound of the present invention, a control compound or Ara-A (control), 1.5 mL of a 0.1 M phosphate buffer (pH 7.5; final concentration: 75 mM) and 300 μL of a 200 units/mL enzyme solution (final concentration: […]) were placed in a UV cell and the decrease in ultraviolet absorption at 265 nm with a lapse of time was measured by an ultraviolet absorption meter. The enzymatic reaction was carried out at 25° C. As the enzymatic reaction proceeded, an ultraviolet absorption at 265 nm decreased and said rate of decrease in ultraviolet absorption was expressed as a relative enzymatic reaction rate.

[2] = tested on: shingles herpes virus (VZV, Kawaguchi strain); experiment: Antiviral activity to shingles herpes virus, plaque numbers on HEL cells; assay type: cell-based, varicella-zoster virus; conditions: incubated one week, FIG. 1 and FIG. 2
Description: As a test for efficacy of antiviral activity, antiviral activity to shingles herpes virus was measured. Cell-free aricella-zoster virus (VZV) (Kawaguchi strain) was diluted and the resulting solution was layered on HEL cells of a 100% confluent. The layered product was placed in a CO2 incubator of 37° C., shaken every 15 minutes and infected for one hour. The virus solution was removed by suction, then DMEM containing 5% of FCS and a compound of the present invention, a control compound or Ara-A (positive control) was added thereto and the mixture was incubated for one week. The incubated mixture was fixed by formalin, dyed with Crystal Violet and numbers of plaques were measured. The inhibiting rate to shingles virus was determined from the plaque numbers of the control.

[3] = tested on: adenosinedeaminase (ADA); conditions: background statement; cited from earlier work

Row | SMILES | resistance (stability) to metabolism by ADA, relative enzymatic reaction rate [1] | antiviral activity to shingles virus (inhibiting rate from plaque numbers) [2] | metabolism by ADA in the blood stream [3]
1 | CCc1nc(N)c2ncn([C@@H]3O[C@H](CO)[C@@H](O)[C@@H]3O)c2n1 [control compound B, 9-(β-D-arabinofuranosyl)-2-ethyladenine] | not satisfactory in terms of resistance to ADA; also recorded: did not show a favorable resistance to ADA | no strong antiviral action is obtained; also recorded: a sufficient antiviral action is not achieved | –
2 | Cc1nc(N)c2ncn([C@@H]3O[C@H](CO)[C@@H](O)[C@@H]3O)c2n1 [control compound A, 9-(β-D-arabinofuranosyl)-2-methyladenine] | not satisfactory in terms of resistance to ADA; also recorded: did not show a favorable resistance to ADA | no strong antiviral action is obtained; also recorded: a sufficient antiviral action is not achieved | –
3 | Nc1ncnc2c1ncn2[C@@H]1O[C@H](CO)[C@@H](O)[C@@H]1O [Ara-A, Arabinosyladenine] | – | – | quickly metabolized by adenosinedeaminase (ADA) in the blood stream to hypoxanthine arabinoside
